Test results: US20120035320A1, “POLYACRIDINE NUCLEIC ACID DELIVERY PEPTIDE COMPLEXES” (University of Iowa Research Foundation, priority 2010, published 2012)
Like-named read-outs stand apart in the source and are kept apart here. No end group written: not given here. Acr = acridine on the lysine ε-amine

Tests used:
[1] = tested on: DNA; assay: DNA band shift and thiazole orange displacement assays of cysteine-flanked acridinylated peptides; format: binding
Protocol: CKacrKKacrC (SEQ ID NO: 103), CKacrRKacrC (SEQ ID NO: 104), CKacrLKacrC (SEQ ID NO: 105), and CKacrFKacrC (SEQ ID NO: 106) (where Kacr is a lysine modified with acridine at the ε-amine) (FIG. 33, Formula VII) were synthesized by SPPS and purified while monitoring the absorbance of acridine at 409 nm. Monomers were evaluated for DNA affinity by DNA band shift and thiazole orange displacement assays. DNA complexes with monomers were also evaluated for particle size and ζ-potential. […] Buffered incubations of monomer at pH 8.0 were used to encourage polymerization of peptides and poly-CKacrKKacrC (SEQ ID NO: 103) and poly-CKacrRKacrC (SEQ ID NO: 104) have been isolated.

[2] = molecular target: human DC-SIGN (Dendritic Cell-Specific Intracellular adhesion molecule-3 Grabbing Non-integrin) receptor, stably transfected in CHO cells (human) (UniProt Q9NNX6); assay: FACS of DC-SIGN CHO (+) and (-) cells after 24 hr at 37 C with Cy5-DNA glycopeptide polyplex
[3] = molecular target: human DC-SIGN (Dendritic Cell-Specific Intracellular adhesion molecule-3 Grabbing Non-integrin) receptor, stably transfected in CHO cells (human) (UniProt Q9NNX6); assay: cell-based or functional assay
[4] = molecular target: human DC-SIGN (Dendritic Cell-Specific Intracellular adhesion molecule-3 Grabbing Non-integrin) receptor, stably transfected in CHO cells (human) (UniProt Q9NNX6); assay: FACS of DC-SIGN CHO (+) and (-) cells after 24 hr with Cy5-DNA glycopeptide polyplex
[5] = tested on: Erythrocytes; assay: RBC hemolysis assay; format: cell-based, mice
Protocol: Whole blood was obtained from male ICR mice by heart puncture with heparinized 22 G needles and collected in conical tubes containing 10 ml of 0.15 M PBS (pH 7.4) prewarmed to 37° C. Erythrocytes were immediately separated from plasma by centrifugation at 2000 rpm for 2 min, washed three times with 10 ml of PBS, and then diluted to 1.5×10^8 cells/ml. Peptides were prepared at 15 μM and serially diluted to 10-0.01 μM, after which 100 μl was pipetted in triplicate into a MultiScreenHTS BV 96 well plate. Erythrocytes (50 μl, 7.5×10^6 cells) were added to the peptides and incubated at 37° C. for 1 h followed by filtration on a Multiscreen vacuum manifold (Millipore Corporation, Billerica, Mass.). The filtrate was measured for Abs410nm on a Biotech plate reader (Biotech Instruments Incorporated., Winooski, Vt.) and compared to the 100% hemolysis caused by replacing PBS with water. Peptide DNA polyplexes (1.5 nmols and 7.5 μg pGL3) were also assayed for hemolysis as described above.

[6] = QELS particle size and zeta potential of polyacridine-melittin polyplexes; format: physicochemical; conditions: mean particle size of peptide-DNA polyplex, 0.5 nmol of peptide per μg of DNA
Protocol: Particle size and zeta potential were determined by preparing 2 ml of polyplex in 5 mM Hepes pH 7.5 at a DNA concentration of 30 μg/ml with 15 nmols/ml of peptide (0.5 nmol of peptide per μg of DNA). Particle size was measured by quasi-elastic light scattering (QELS) at a scatter angle of 90° on a Brookhaven ZetaPlus particle sizer (Brookhaven Instruments Corporation, NY). The zeta potential was determined as the mean of ten measurements immediately following acquisition of the particle size.

[7] = tested on: HepG2, 3T3, and CHO cells; assay: in vitro gene transfer (luciferase) in three cell lines; format: cell-based; conditions: all three cell lines; 0.5 nmol per μg of pGL3
Protocol: HepG2 cells (5×10^5) were plated on 6×35 mm wells and grown to approximately 50% confluency. Transfections were performed in MEM supplemented with 2% FBS, sodium pyruvate (1 mM), and penicillin and streptomycin (100 U and 100 μg/mL). Polyplexes were prepared at a DNA concentration of 30 μg/ml and a stoichiometry of 0.5 nmol peptide per μg of DNA in Hepes buffered mannitol (HBM). Polyplexes (10 μg of DNA in 0.3 ml of HBM) were added drop wise to wells in triplicate. After 24 hrs, the cells were washed twice with 2 ml of ice-cold phosphate-buffered saline (Ca^2+- and Mg^2+-free) and then treated with 0.5 ml of lysis buffer (25 mM Tris Chloride, pH 7.8, 1 mM EDTA, 8 mM magnesium chloride, and 1% Triton X-100) for 10 min at 4° C. Cell lysates were scraped, transferred to 1.5 mL microcentrifuge tubes, and centrifuged for 10 min at 13,000 g at 4° C. to pellet cell debris. Lysis buffer (300 μL), sodium-ATP (4.3 μL of a 165 mM solution at pH 7, 4° C.) were combined in a test tube, mixed briefly, and immediately placed in the luminometer. Luciferase relative light units were measured by a Lumat LB 9501 (Berthold Systems, Germany) with 10 s integration after automatic injection of 100 μL of 0.5 mM D-luciferin. […] Protein concentrations were measured by a BCA assay using bovine serum albumin as a standard. […]

[8] = tested on: liver; assay: hydrodynamic stimulation and bioluminescence imaging of luciferase expression; format: in vivo, mice; conditions: tail vein 1 μg pGL3 in complex with 0.5 nmol peptide; HD stimulation 30 min after DNA
Protocol: pGL3 (1 μg) was prepared in a volume of normal saline corresponding to 9 wt/vol % of the mouse's body weight (1.8-2.25 ml based on 20-25 g mice). The DNA dose was administered by tail vein to 4-5 mice in 5 sec according to a published procedure (Liu F, Song Y, Liu D. Hydrodynamics-based transfection in animals by systemic administration of plasmid DNA. Gene Ther 1999; 6: 1258-1266; Zhang G, Budker V, Wolff J A. High levels of foreign gene expression in hepatocytes after tail vein injections of naked plasmid DNA. Human Gene Therapy 1999; 10: 1735-1737). Mice (4-5) were also dosed tail vein with 1 μg of PEGylated polyacridine polyplex in 50 μl of HBM (5 mM Hepes, 0.27 M mannitol, pH 7.4). At times ranging from 5-120 min, a stimulatory hydrodynamic dose of normal saline (9 wt/vol % of the body weight) was administered over 5 sec. At 24 hrs post-DNA dose, mice were anesthetized by 3% isofluorane, then administered an i.p. dose of 80 μl (2.4 mg) of D-luciferin (30 μg/μl in phosphate-buffered saline). At 5 min following the D-luciferin dose, mice were imaged for bioluminescence (BLI) on an IVIS Imaging 200 Series (Xenogen). BLI was performed in a light-tight chamber on a temperature-controlled, adjustable stage while isofluorane was administered by a gas manifold at a flow rate of 3%. Images were acquired at a ‘medium’ binning level and a 20 cm field of view. Acquisition times were varied (1 sec^−1 min) depending on the intensity of the luminescence. The Xenogen system reported bioluminescence as photons/sec/cm^2/seradian in a 2.86 cm diameter region of interest covering the liver. The integration area was transformed to pmols of luciferase in the liver using a previously reported standard curve (Rettig G et al. Quantitative Bioluminscence Imaging of Transgene Expression In Vivo. Analytical Biochemistry 2006; 335: 90-94). The results were determined to be statistically significant (p≦0.05) based on a two-tailed unpaired t-test.

Chain of UniProt Q9NNX6 (Q9NNX6 whole entry): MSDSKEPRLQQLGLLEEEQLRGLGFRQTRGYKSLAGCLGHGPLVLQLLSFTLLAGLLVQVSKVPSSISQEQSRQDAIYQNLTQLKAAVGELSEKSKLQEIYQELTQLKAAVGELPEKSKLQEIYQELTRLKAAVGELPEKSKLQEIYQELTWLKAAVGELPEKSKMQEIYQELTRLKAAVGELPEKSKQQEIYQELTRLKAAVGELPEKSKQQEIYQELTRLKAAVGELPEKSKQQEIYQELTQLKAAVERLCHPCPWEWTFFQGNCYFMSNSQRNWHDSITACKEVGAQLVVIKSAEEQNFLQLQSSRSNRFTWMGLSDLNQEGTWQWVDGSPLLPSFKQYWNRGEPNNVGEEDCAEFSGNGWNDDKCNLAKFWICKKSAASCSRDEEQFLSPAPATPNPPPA

With “CKacrKKacrC: cysteine-flanked acridinylated peptide, Kacr = lysine modified with acridine at the ε-amine; SEQ ID NO: 103 (CK(Acr)KK(Acr)C; cysteine pairing not given here)” the “affinity for DNA” value [1] was “higher affinity for DNA”.
“Man 9 glycopeptide (Man9GlcNAc2-Asn-Tyr-propionate maleimide conjugated to Cys-(Acr-Lys)4)” showed a fold fluorescence intensity (cell uptake), CHO (+) over CHO (-) cells [2] of 10 to 50 fold, an in vitro gene transfer (luciferase expression) in CHO (+) versus CHO (-) cells [3] of 100 fold and a fold fluorescence intensity, CHO (+) over CHO (-) cells [4] of 10 fold.
With “CKacrRKacrC: cysteine-flanked acridinylated peptide, SEQ ID NO: 104 (CK(Acr)RK(Acr)C; cysteine pairing not given here)” the “affinity for DNA” value [1] was “higher affinity for DNA”.
In the case of “poly-CKacrKKacrC: disulfide polymer of CKacrKKacrC formed by buffered incubation at pH 8.0 (CK(Acr)KK(Acr)C; also: disulfide polymer formed at pH 8.0)”, the “affinity for DNA” value [1] is reported as “greater affinity of the polymer for DNA than the monomer”.
With `CC[C@H](C)[C@H](NC(=O)CNC(=O)[C@H](CCCCN)NC(=O)[C@H](CCCCN)NC(=O)[C@H](Cc1c[nH]c2ccccc12)NC(=O)[C@@H](N)CSSC[C@H](NC(=O)[C@H](CCCNC(=N)N)NC(=O)[C@H](CCCCNC(C)=O)NC(=O)[C@H](CCCNC(=N)N)NC(=O)[C@H](CCCCNC(C)=O)NC(=O)[C@H](CCCNC(=N)N)NC(=O)[C@H](CCCCNC(C)=O)NC(=O)[C@H](CCCNC(=N)N)NC(=O)[C@H](CCCCNC(C)=O)NC(=O)[C@@H](N)Cc1c[nH]c2ccccc12)C(=O)O)C(=O)NCC(=O)N[C@@H](C)C(=O)N[C@H](C(=O)N[C@@H](CC(C)C)C(=O)N[C@@H](CCCCN)C(=O)N[C@H](C(=O)N[C@@H](CC(C)C)C(=O)N[C@H](C(=O)N[C@H](C(=O)NCC(=O)N[C@@H](CC(C)C)C(=O)N1CCC[C@H]1C(=O)N[C@@H](C)C(=O)N[C@@H](CC(C)C)C(=O)N[C@H](C(=O)N[C@@H](CO)C(=O)N[C@@H](CC(C)C)C(=O)N[C@H](C(=O)N[C@@H](CCCCN)C(=O)N[C@@H](CCCNC(=N)N)C(=O)N[C@@H](CCCCN)C(=O)N[C@@H](CCCNC(=N)N)C(=O)N[C@@H](CCC(N)=O)C(=O)N[C@@H](CCC(N)=O)C(=O)O)[C@@H](C)CC)[C@@H](C)CC)[C@@H](C)O)[C@@H](C)O)C(C)C)C(C)C` [poly(Lys(Ac)-Arg)4-SS-melittin] the EC50 ([5]; RBC hemolysis at pH 5.0, second value of the cell (pH 7.4:5.0), read-out: HL50 (μM) pH 5.0) was 7.7 µM, the EC50 ([5]; RBC hemolysis at pH 7.4, first value of the cell (pH 7.4:5.0), read-out: HL50 (μM) pH 7.4) was 5.6 µM and the “Particle Size (nm)” value [6] was 177 nm. For the same compound, the “gene transfer, fold less active than poly(Acr-Arg)4-SS-melittin” value [7] was 100-1000 fold.
In the case of “PEGylated-SS-(Acr-Arg)4: (Acr-Arg)4-Cys with Cys thiol reacted with 5 kDa PEG-OPSS, reducible disulfide linkage”, the “BLI luciferase expression in liver at 24 hr” value [8] is reported as “approximately 10^7 photons/sec/cm^2/sr”.
